{
  "source": "patent US11440923B2",
  "about": "“Substituted macrocyclic indole derivatives” (Bayer Aktiengesellschaft, priority 2017, dated 2022)",
  "key": {"BCL-2": {"biological_target": "BCL-2 (Homo sapiens (Human), UniProt P10415)", "sequence (P10415 1-211)": "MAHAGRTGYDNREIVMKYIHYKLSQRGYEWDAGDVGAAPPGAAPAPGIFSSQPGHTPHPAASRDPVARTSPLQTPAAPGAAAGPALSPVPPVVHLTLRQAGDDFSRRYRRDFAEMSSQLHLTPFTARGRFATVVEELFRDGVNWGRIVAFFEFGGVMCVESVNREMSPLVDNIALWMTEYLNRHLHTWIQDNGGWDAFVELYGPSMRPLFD", "test": "Protein-protein interaction assay BCL-2/Bad BH3 peptide (BCL-2 assay, TR-FRET)", "type": "binding", "details": "read-out: BCL-2 Assay IC50 (median)", "procedure": "Assay 3 Protein-Protein Interaction Assay: BCL-2/Bad BH3 Peptide (BCL-2 Assay)\nThe dose-dependent inhibition by the compounds described in this invention of the interaction between BCL-2 and the BH3 domain of Bad (both human) was determined using a steady state binding competition assay with time-resolved fluorescence energy transfer (TR-FRET) readout. For that purpose BCL-2 (amino acids 1-211, C-terminal fused to a hexahistidine (6×His) tag (SEQ ID 5) and a synthetic Bad BH3-derived peptide of sequence Biotin-PEG2-PEG2-[…]-Nle-[…]-amide (SEQ ID 4) served as protein receptor and tracer ligand respectively. The recombinant BCL-2 protein (expressed in E. coli) was purchased from BPS Bioscience (San Diego, Calif., USA). The Bad BH3-derived peptide can be obtained from e.g. Biosyntan (Berlin, Germany).\nIn the assay 11 different concentrations of each compound (0.1 nM, 0.33 nM, 1.1 nM, 3.8 nM, 13 nM, 44 nM, 0.15 μM, 0.51 μM, 1.7 μM, 5.9 μM and 20 μM) were typically measured as duplicates in the same microtiter plate. For that, 100-fold concentrated DMSO solutions were prepared by serial dilutions (1:3.4) of a 2 mM stock solution in a clear, 384-well microtiter plate (Greiner Bio-One, Frickenhausen, Germany). From there, 50 nl were transferred in a dark test plate (Greiner Bio-One, Frickenhausen, Germany). The assay was initiated by addition of 2 μL of a 2,5-fold concentrated His-BCL-2 solution (usually for a 1 nM end concentration in 5 μL reaction volume) in aqueous assay buffer [50 mM Tris/HCl pH 7, 100 mM sodium chloride (NaCl), 50 mM potassium fluoride (KF), 0.005% Tween-20, 2 mM DTT, 0.1% bovine gamma globulin (BGG)] to the compounds in the assay plate. This was followed by a 10-minute incubation step at 22° C. for pre-equilibration of the putative complex between His-BCL-2 and the compounds. After that, 3 μL of a 1.67-fold concentrated solution (in assay buffer) consisting of Bad BH3-derived peptide (1 nM end concentration) and TR-FRET detection reagents [1.67 nM anti-His-Eu cryptate and 1.67 nM streptavidin-XL665 (both from Cisbio Bioassays, Codolet, France)], were added.\nThe mixture was incubated in the dark for one hour at 22° C. and then overnight at 4° C. The formation of BCL-2/Bad complexes was determined by measuring the resonance energy transfer of the anti-His-Eu-cryptate antibody to the streptavidin-XL665 present in the reaction. For that purpose, the fluorescence emission at 620 nm and 665 nm after excitation at 330-350 nm was measured in a TR-FRET measuring instrument, for instance a Rubystar or a Pherastar (both from BMG Lab Technologies, Offenburg, Germany) or a Viewlux (Perkin-Elmer). The ratio of the emission at 665 nm and at 622 nm was used as indicator of the amount of BCL-2/Bad complexes present.\nThe resulting data (ratio) were normalized, taking 0% inhibition as the mean value of control measurements (usually 32 data points) where all reagents were included. In this case 50 nl DMSO were used instead of compounds. […] IC50 values were determined by regression analysis based on a 4 parameter equation (minimum, maximum, IC50, Hill; Y=Max+(Min−Max)/(1+(X/IC50)^Hill) using the Screener Software (Genedata)."}, "SUDHL5 cells [1]": {"system": "SUDHL5 cells", "test": "Induction of cytotoxicity in SUDHL5 cells (Assay 6)", "type": "cell-based", "details": "5 h, CellTiter-Glo, read-out: Cytotox SUDHL5 IC50 (median)", "method_in_brief": "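Run alongside apoptosis measurements, this cytotoxicity readout used cells treated with compound for 5 h at 37 °C and quantified ATP-based luminescence with CellTiter-Glo.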"}, "AMO-1 cells": {"system": "AMO-1 cells", "test": "Antiproliferation assay AMO-1 (Assay 7)", "type": "cell-based", "method_in_brief": "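IC50 values reflect growth relative to a day 0 baseline (CI) and DMSO vehicle (C0). Viable cells were quantified by CellTiter-Glo luminescence after 72 h treatment at 37 °C.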"}, "SUDHL5 cells [2]": {"system": "SUDHL5 cells", "test": "Induction of caspase-3/7 activity in SUDHL5 cells (Assay 4)", "type": "cell-based", "method_in_brief": "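Caspase-3/7 activity measured in DLBCL lines after 3 h compound exposure at 37 °C, following overnight plating; Caspase-Glo 3/7 luminescence read after 1 h at 37 °C. Medium-only background subtracted, values normalized to mean of DMSO-treated cells.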"}, "[3]": {"details": "Homo sapiens, AMO1, 72 h, 72 h, CellTiter-Glo; read-out: Antiproli AMO-1 IC50 median"}, "[4]": {"details": "Homo sapiens, SU-DHL-5, 3 h, caspase-3/7 induction, 3 h; read-out: Caspase SUDHL5 EC50 (median)"}, "[5]": {"details": "72 h, CellTiter-Glo; read-out: Antiproli AMO-1 IC50 median"}, "[6]": {"details": "caspase-3/7 induction, 3 h; read-out: Caspase SUDHL5 EC50 (median)"}},
  "note": "Structures can show the parent of a compound that is named as a salt. Where two headings read alike, the source gives them in different places.",
  "data": [
    {"molecule": "CCc1c2c(nn1C)C(CCOC)OCCCCn1c(C(=O)O)c(CCCOc3cccc4cc(F)ccc34)c3ccc(Cl)c-2c31", "note": "(single isomer, unassigned; enantiomer 2) [Example 43, (−)-4-chloro-3-ethyl-7-{3-[(6-fluoronaphthalen-1-yl)oxy]propyl}-15-(2-methoxyethyl)-2-methyl-2,10,11,12,13,15-hexahydropyrazolo[4′,3′:9,10][1,6]oxazacycloundecino[8,7,6-hi]indole-8-carboxylic Acid—N-ethylethanamine Salt (Enantiomer 2)]", "values": [
      {"measurement": "IC50", "setting": "BCL-2", "result": 19.3, "unit": "µM"},
      {"measurement": "IC50", "setting": "SUDHL5 cells [1]", "result": 18, "unit": "µM"},
      {"measurement": "IC50", "setting": "AMO-1 cells; read-out: Antiproli AMO-1 IC50 median; 72 h, CellTiter-Glo", "result": 20, "unit": "µM"},
      {"measurement": "EC50", "setting": "SUDHL5 cells [2]; read-out: Caspase SUDHL5 EC50 (median); caspase-3/7 induction, 3 h", "result": 20, "unit": "µM"}
    ]},
    {"molecule": "CCc1c2c(nn1C)C(CCN1CCOCC1)OCCCCn1c(C(=O)O)c(CCCOc3cccc4ccccc34)c3ccc(F)c-2c31", "note": "(racemic) [Example 10, (rac)-3-ethyl-4-fluoro-2-methyl-15-[2-(morpholin-4-yl)ethyl]-7-[3-(naphthalen-1-yloxy)propyl]-2,10,11,12,13,15-hexahydropyrazolo[4′,3′:9,10][1,6]oxazacycloundecino[8,7,6-hi]indole-8-carboxylic Acid]", "values": [
      {"measurement": "IC50", "setting": "BCL-2", "result": "> 20", "unit": "µM"},
      {"measurement": "IC50", "setting": "SUDHL5 cells [1]; Homo sapiens, SU-DHL-5, 5 h", "result": 0.14, "unit": "µM"},
      {"measurement": "IC50", "setting": "AMO-1 cells; [3]", "result": 0.412, "unit": "µM"},
      {"measurement": "EC50", "setting": "SUDHL5 cells [2]; [4]", "result": 0.11, "unit": "µM"}
    ]},
    {"molecule": "CCc1c2c(nn1C)C(CCN1CCOCC1)OCCCCn1c(C(=O)O)c(CCCOc3cccc4cc(F)ccc34)c3ccc(F)c-2c31", "note": "(racemic) [Example 49, (rac)-3-Ethyl-4-fluoro-7-{3-[(6-fluoronaphthalen-1-yl)oxy]propyl}-2-methyl-(15-rac)-[2-(morpholin-4-yl)ethyl]-2,10,11,12,13,15-hexahydropyrazolo[4′,3′:9,10][1,6]oxazacycloundecino[8,7,6-hi]indole-8-carboxylic Acid]", "values": [
      {"measurement": "IC50", "setting": "BCL-2", "result": "> 20", "unit": "µM"},
      {"measurement": "IC50", "setting": "SUDHL5 cells [1]; Homo sapiens, SU-DHL-5, 5 h", "result": 0.034, "unit": "µM"},
      {"measurement": "IC50", "setting": "AMO-1 cells; [3]", "result": 0.0767, "unit": "µM"},
      {"measurement": "EC50", "setting": "SUDHL5 cells [2]; [4]", "result": 0.033, "unit": "µM"}
    ]},
    {"molecule": "CCc1c2c(nn1C)C(CCO)OCCCCn1c(C(=O)O)c(CCCOc3cccc4cc(F)ccc34)c3ccc(Cl)c-2c31", "note": "(single isomer, unassigned; enantiomer 2) [Example 46, (−)-4-chloro-3-ethyl-7-{3-[(6-fluoronaphthalen-1-yl)oxy]propyl}-15-(2-hydroxyethyl)-2-methyl-2,10,11,12,13,15-hexahydropyrazolo[4′,3′:9,10][1,6]oxazacycloundecino[8,7,6-hi]indole-8-carboxylic Acid (Enantiomer 2)]", "values": [
      {"measurement": "IC50", "setting": "BCL-2", "result": "> 20", "unit": "µM"},
      {"measurement": "IC50", "setting": "SUDHL5 cells [1]", "result": 4.3, "unit": "µM"},
      {"measurement": "IC50", "setting": "AMO-1 cells; [5]", "result": 8.65, "unit": "µM"},
      {"measurement": "EC50", "setting": "SUDHL5 cells [2]; [6]", "result": 4.9, "unit": "µM"}
    ]},
    {"molecule": "CCc1c2c(nn1C)C(CCC1CCOCC1)OCCCCn1c(C(=O)O)c(CCCOc3cccc4cc(F)ccc34)c3ccc(Cl)c-2c31", "note": "(single isomer, unassigned; enantiomer 2) [Example 62, (−)-4-chloro-3-ethyl-7-{3-[(6-fluoronaphthalen-1-yl)oxy]propyl}-2-methyl-15-[2-(oxan-4-yl)ethyl]-2,10,11,12,13,15-hexahydropyrazolo[4′,3′:9,10][1,6]oxazacycloundecino[8,7,6-hi]indole-8-carboxylic Acid (Enantiomer 2)]", "values": [
      {"measurement": "IC50", "setting": "BCL-2", "result": "> 20", "unit": "µM"},
      {"measurement": "IC50", "setting": "SUDHL5 cells [1]", "result": 6.3, "unit": "µM"},
      {"measurement": "IC50", "setting": "AMO-1 cells; [5]", "result": 1.92, "unit": "µM"},
      {"measurement": "EC50", "setting": "SUDHL5 cells [2]; [6]", "result": 4.2, "unit": "µM"}
    ]},
    {"molecule": "CCc1c2c(nn1C)C(CCOC)OCCCCn1c(C(=O)O)c(CCCOc3cccc4cc(F)ccc34)c3ccc(Cl)c-2c31", "note": "(racemic) [Example 41, (rac)-4-chloro-3-ethyl-7-{3-[(6-fluoronaphthalen-1-yl)oxy]propyl}-(15-rac)-(2-methoxyethyl)-2-methyl-2,10,11,12,13,15-hexahydropyrazolo[4′,3′:9,10][1,6]oxazacycloundecino[8,7,6-hi]indole-8-carboxylic Acid]", "values": [
      {"measurement": "IC50", "setting": "BCL-2", "result": 18.1, "unit": "µM"},
      {"measurement": "IC50", "setting": "SUDHL5 cells [1]; Homo sapiens, SU-DHL-5, 5 h", "result": 0.17, "unit": "µM"},
      {"measurement": "IC50", "setting": "AMO-1 cells; [3]", "result": 0.135, "unit": "µM"},
      {"measurement": "EC50", "setting": "SUDHL5 cells [2]; [4]", "result": 0.097, "unit": "µM"}
    ]}
  ]
}
